In one assay the test system is Mtb H37Rv. Put plainly: Antimycobacterial activity assay (resazurin colorimetric, whole-cell). Format: cell-based, Mycobacterium tuberculosis. The settings on record: for MIC90: Mycobacterium tuberculosis, H37RV; for Activity against Mtb: three growth media. (Alamar Blue is a resazurin reagent that responds to reducing activity.)
The target of assay [1] is T1, CYP121A1 (Mycobacterium tuberculosis, UniProt P9WPP7).
T1 construct: made in house
Format: biochemical. The settings on record: 100 μM compound + 100 μM cYY.

Assay [2] has as its target T1, CYP121A1. Put plainly: biochemical. Type of assay: binding. The settings on record: UV-Vis titration; compounds screened at 300 μM; Type II Soret shift; 28 °C.
The target of assay [3] is T2, Mtb CYP121A1 (Mycobacterium tuberculosis, UniProt P9WPP7).
T2 construct: His6; made in house
In words: biochemical. Type of assay: binding. The settings on record: 25 °C, 50 μM CYP121A1, 10% DMSO-d6; read-out: Kd (ITC).

For assay [4], the target named is T2, Mtb CYP121A1. In words: Differential scanning fluorimetry (DSF). Type of assay: binding. The settings on record: read-out: ΔTm. Background: In DSF a fluorescence change marks the thermal transition of the protein.
The target in assay [5] is T1, CYP121A1. In words: X-ray crystallographic screening (crystal soaking). The settings on record: soaking experiments. Format: binding.
The test system of another assay is Mtb strain H37Rv. The settings on record: comparison with 61; cited from earlier work.
Where [6] appears, read: 168 h, Mtb H37Rv, 7H9 with low BSA (0.05% albumin, ADN), one week, read-out: MIC90 7H9-Low BSA.
The mark [7] stands for this setting: 168 h, Mtb H37Rv, Middlebrook 7H9 with 10% ADC (BSA rich), one week, read-out: MIC90 c7H9.
The mark [8] stands for this setting: 336 h, Mtb H37Rv, Mycobacterial Minimal Medium with cholesterol, two weeks, read-out: MIC90 MMM-Ch.
Where [9] appears, read: medium not specified or span over the three growth media tested, read-out: MIC90 against Mtb strain H37Rv.

Structures can show the parent of a compound that is named as a salt. Where two headings read alike, the source gives them in different places.

T2 sequence (P9WPP7 whole entry): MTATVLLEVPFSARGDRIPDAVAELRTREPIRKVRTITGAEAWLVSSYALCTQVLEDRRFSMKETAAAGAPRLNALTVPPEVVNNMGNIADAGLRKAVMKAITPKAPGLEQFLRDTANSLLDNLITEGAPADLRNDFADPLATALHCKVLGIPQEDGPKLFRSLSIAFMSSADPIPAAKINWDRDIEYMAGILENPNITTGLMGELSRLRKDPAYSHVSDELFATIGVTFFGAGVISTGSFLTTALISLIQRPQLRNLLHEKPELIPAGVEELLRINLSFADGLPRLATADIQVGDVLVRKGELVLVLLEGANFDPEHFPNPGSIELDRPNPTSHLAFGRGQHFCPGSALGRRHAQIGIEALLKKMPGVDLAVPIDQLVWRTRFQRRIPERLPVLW
T1 sequence (P9WPP7 whole entry): as above

With `c1ccc2c(c1)OCCN2c1nccc(CCc2c[nH]c3ccccc23)n1` [Compound 61, 4-(4-(2-(1H-Indol-3-yl)ethyl)pyrimidin-2-yl)-3,4-dihydro-2H-benzo[b][1,4]oxazine], the MIC90 (usually the lowest concentration that inhibits either 90% of growth or 90% of the strains tested, depending on the study) is 25 µM in the assay on Mtb H37Rv (setting [6]); 12.5 µM in the assay with Mtb H37Rv (setting [7]); 6.25 µM with Mtb H37Rv (setting [8]); about 2.2 µg/mL in the assay on Mtb H37Rv (converted from μM value, read-out: MIC90 against Mtb strain H37Rv); 6.25 µM in the assay with Mtb H37Rv (setting [9]). The “Activity against Mtb” value with Mtb H37Rv was “moderate inhibitors”. Moreover, the “Inhibition of CYP121A1 / production of mycocyclosin” value on CYP121A1 [1] is recorded as “markedly reduced the production of mycocyclosin”.

For the molecule `Ic1ccc2[nH]cc(CCc3ccncc3)c2c1` [Compound 42, 5-Iodo-3-(2-(pyridin-4-yl)ethyl)-1H-indole], at CYP121A1 [2], the Kd (commonly the equilibrium constant for the complex coming apart) was found to be 3.2 ± 0.3 µM.

For the molecule `c1ccc2c(CCc3ccnc(N4CC5CCC(C4)O5)n3)c[nH]c2c1` [Compound 58, 3-(4-(2-(1H-Indol-3-yl)ethyl)pyrimidin-2-yl)-8-oxa-3-azabicyclo[3.2.1]octane], the values for the MIC90 with Mtb H37Rv (setting [6]), in the assay on Mtb H37Rv (setting [7]) and in the assay with Mtb H37Rv (setting [8]) were 50 µM, 200 µM and 25 µM, respectively. For the same molecule, the “Activity against Mtb” value with Mtb H37Rv is “active, but showed much reduced potency in BSA rich medium”.

Turning to `Brc1ccc2[nH]cc(CCc3ccncc3)c2c1` [Compound 9], the Kd on CYP121A1 [2] amounted to 3.8 ± 0.5 µM.

With `CC(=O)n1cc(CCc2ccnc(N3CCOCC3)n2)c2ccccc21` [Compound 64, 1-(3-(2-(2-Morpholinopyrimidin-4-yl)ethyl)-1H-indol-1-yl)ethan-1-one], the MIC90 in the assay on Mtb H37Rv (setting [6]), with Mtb H37Rv (setting [7]) and in the assay with Mtb H37Rv (setting [8]) was over 400 µM each time. The “Activity against Mtb” value in the assay with Mtb H37Rv is on record as “essentially lost all activity”.

Turning to `Fc1ccc2[nH]cc(CCc3ccncc3)c2c1` [Compound 41], the Kd at CYP121A1 [2] was found to be 27.3 ± 4.8 µM.

Turning to `Nc1[nH]nc(-c2ccc(O)cc2)c1-c1ccc(O)cc1` [Compound 45, reference compound], the Kd at Mtb CYP121A1 [3] is 20 to 25 µM. Also, on Mtb CYP121A1 [4], the shift in melting temperature (ΔTm) (in general, the shift of the melting midpoint relative to a reference) at 1000 µM was found to be 1 °C.

Take `Cn1cc(CCc2ccnc(N3CCOCC3)n2)c2ccccc21` [Compound 57, 4-(4-(2-(1-Methyl-1H-indol-3-yl)ethyl)pyrimidin-2-yl)morpholine]: the MIC90 in the assay on Mtb H37Rv (setting [6]) came to 25 µM; in the assay with Mtb H37Rv (setting [7]), 50 µM; in the assay with Mtb H37Rv (setting [8]), 25 µM. For the same molecule, the “Activity against Mtb” value with Mtb H37Rv is “moderate inhibitors”.

`Oc1ccc2[nH]cc(CCc3ccnc(N4CCOCC4)n3)c2c1` [Compound 55, 3-(2-(2-Morpholinopyrimidin-4-yl)ethyl)-1H-indol-5-ol]: the thermal shift (ΔTm) at 1000 µM on Mtb CYP121A1 [4] is 0.5 °C.

`Fc1ccc2[nH]cc(CCc3ccnc(N4CCOCC4)n3)c2c1` [Compound 51, 4-(4-(2-(5-Fluoro-1H-indol-3-yl)ethyl)pyrimidin-2-yl)morpholine]: the results for the MIC90 with Mtb H37Rv (setting [6]), with Mtb H37Rv (setting [7]) and in the assay on Mtb H37Rv (setting [8]) were 50 µM, 25 µM and 25 µM, respectively. In the assay with Mtb H37Rv, the “Activity against Mtb” value was “moderate inhibitors”.

On to `Brc1ccc2[nH]cc(CCc3ccnc(N4CCCO4)n3)c2c1` [Compound 30, 2-(4-(2-(5-Bromo-1H-indol-3-yl)ethyl)pyrimidin-2-yl)isoxazolidine], for which the MIC90 with Mtb H37Rv (setting [6]) is 200 µM; in the assay on Mtb H37Rv (setting [7]), 200 µM; in the assay with Mtb H37Rv (setting [8]), 100 µM.

`COC1CN(c2nccc(CCc3c[nH]c4ccc(Cl)cc34)n2)C1` [Compound 32, 5-Chloro-3-(2-(2-(3-methoxyazetidin-1-yl)pyrimidin-4-yl)ethyl)-1H-indole]: the MIC90 in the assay on Mtb H37Rv (setting [6]) was 100 µM; in the assay with Mtb H37Rv (setting [7]), 200 µM; with Mtb H37Rv (setting [8]) it was 50 µM; in the assay on Mtb H37Rv (setting [9]), 12.5 to 50 µM.

Take `COc1ccc2[nH]cc(CCc3ccncc3)c2c1` [Compound 43]: the equilibrium dissociation constant (Kd) at CYP121A1 [2] amounted to 105 ± 10 µM.

For the molecule `Brc1ccc2c(c1)N(c1nccc(CCc3c[nH]c4ccccc34)n1)CCO2` [Compound 63, 4-(4-(2-(1H-Indol-3-yl)ethyl)pyrimidin-2-yl)-6-bromo-3,4-dihydro-2H-benzo[b][1,4]oxazine], the MIC90 in the assay on Mtb H37Rv (setting [6]) stood at 50 µM; in the assay with Mtb H37Rv (setting [7]), 25 µM; in the assay with Mtb H37Rv (setting [8]), 50 µM. The “Activity against Mtb” value with Mtb H37Rv is “moderate inhibitors”.

`COC1CN(c2nccc(CCc3c[nH]c4ccc(Br)cc34)n2)C1` [Compound 33, 5-Bromo-3-(2-(2-(3-methoxyazetidin-1-yl)pyrimidin-4-yl)ethyl)-1H-indole]: on CYP121A1 [5], the “X-ray crystallographic screening result” value is “hits”.

As to `Clc1ccccc1C(c1ccccc1)(c1ccccc1)n1ccnc1` [clotrimazole], the “MIC90 of azole anti-fungal drugs” value with Mtb strain H37Rv is 11 µg/mL.

For the molecule `c1ccc2c(CCc3nc4c(c(N5CCOCC5)n3)CCNC4)c[nH]c2c1` [Compound 83, 4-(2-(2-(1H-Indol-3-yl)ethyl)-5,6,7,8-tetrahydropyrido[3,4-d]pyrimidin-4-yl)morpholine hydrochloride], the shift in melting temperature (ΔTm) at 1000 µM at Mtb CYP121A1 [4] was 1 °C.

With `COC1CN(c2nccc(CCc3c[nH]c4ccccc34)n2)C1` [Compound 31, 3-(2-(2-(3-Methoxyazetidin-1-yl)pyrimidin-4-yl)ethyl)-1H-indole], the MIC90 in the assay with Mtb H37Rv (setting [6]) amounted to 25 µM; with Mtb H37Rv (setting [7]), 50 µM; in the assay with Mtb H37Rv (setting [8]), 25 µM. Further, the “Activity against Mtb” value with Mtb H37Rv is recorded as “moderate inhibitors”. Moreover, the “X-ray crystallographic screening result” value on CYP121A1 [5] is listed as “hits”.

As to `CO[C@H]1/C=C/O[C@@]2(C)Oc3c(C)c(O)c4c(O)c(c(/C=N/N5CCN(C)CC5)c(O)c4c3C2=O)NC(=O)/C(C)=C\C=C\[C@H](C)[C@H](O)[C@@H](C)[C@@H](O)[C@@H](C)[C@H](OC(C)=O)[C@@H]1C` [Rifampicin, reference compound], the MIC90 came out at 0.013 µM in the assay with Mtb H37Rv (setting [6]), 0.023 µM in the assay with Mtb H37Rv (setting [7]) and 0.013 µM with Mtb H37Rv (setting [8]).

Consider `Brc1ccc2[nH]cc(CCc3ccnc(N4CCOCC4)n3)c2c1` [Compound 21, 4-(4-(2-(5-Bromo-1H-indol-3-yl)ethyl)pyrimidin-2-yl)morpholine], for which the “X-ray crystallographic screening result” value at CYP121A1 [5] was “hits”.

Regarding `FC(F)(F)Oc1ccc2[nH]cc(CCc3ccnc(N4CCOCC4)n3)c2c1` [Compound 53, 4-(4-(2-(5-(Trifluoromethoxy)-1H-indol-3-yl)ethyl)pyrimidin-2-yl)morpholine], the MIC90 was found to be 25 µM in the assay with Mtb H37Rv (setting [6]), 25 µM with Mtb H37Rv (setting [7]) and 50 µM with Mtb H37Rv (setting [8]). Further, the “Activity against Mtb” value in the assay on Mtb H37Rv was “moderate inhibitors”.

For `c1ccc2c(CCc3nc4c(c(N5CC6CCC(C5)O6)n3)CNC4)c[nH]c2c1` [Compound 82, 3-(2-(2-(1H-Indol-3-yl)ethyl)-6,7-dihydro-5H-pyrrolo[3,4-d]pyrimidin-4-yl)-8-oxa-3-azabicyclo[3.2.1]octane hydrochloride], the thermal shift (ΔTm) at 1000 µM at Mtb CYP121A1 [4] turned out to be 2.4 °C.

For `Clc1ccc(COC(Cn2ccnc2)c2ccc(Cl)cc2Cl)c(Cl)c1` (centres unmarked) [miconazole], the “MIC90 of azole anti-fungal drugs” value in the assay with Mtb strain H37Rv was 8 µg/mL.

Turning to `CN1CCN(c2nccc(CCc3c[nH]c4ccc(Br)cc34)n2)CC1` [Compound 23, 5-Bromo-3-(2-(2-(4-methylpiperazin-1-yl)pyrimidin-4-yl)ethyl)-1H-indole], the MIC90 was 25 µM in the assay with Mtb H37Rv (setting [6]), 100 µM in the assay on Mtb H37Rv (setting [7]), 12.5 µM with Mtb H37Rv (setting [8]) and 12.5 to 50 µM in the assay on Mtb H37Rv (setting [9]).

For `c1ccc2c(CCc3ccncc3)c[nH]c2c1` [Compound 7], the dissociation constant (Kd) on CYP121A1 [2] worked out at 483 ± 76 µM. For the same molecule, the “X-ray crystallographic screening result” value on CYP121A1 [5] is “hits”.

With `c1ccc2c(CCc3ccncn3)c[nH]c2c1` [Compound 10], the ΔTm at 1000 µM at Mtb CYP121A1 [4] turned out to be 3.5 °C. Moreover, on CYP121A1 [5], the “X-ray crystallographic screening result” value is reported as “hits”.

For `FC(F)(F)Oc1ccc2[nH]cc(CCc3ccncc3)c2c1` [Compound 44, 3-(2-(Pyridin-4-yl)ethyl)-5-(trifluoromethoxy)-1H-indole], the equilibrium dissociation constant (Kd) on CYP121A1 [2] came to 12.7 ± 2.3 µM.

Consider `Clc1ccc2[nH]cc(CCc3ccncc3)c2c1` [Compound 8], for which the Kd on CYP121A1 [2] was 5.8 ± 0.7 µM.

As to `c1ccc2c(CCc3ccnc(N4CCSCC4)n3)c[nH]c2c1` [Compound 15, 4-(4-(2-(1H-Indol-3-yl)ethyl)pyrimidin-2-yl)thiomorpholine], the MIC90 is 100 µM in the assay with Mtb H37Rv (setting [6]), 200 µM in the assay on Mtb H37Rv (setting [7]), 25 µM in the assay with Mtb H37Rv (setting [8]) and 12.5 to 50 µM in the assay with Mtb H37Rv (setting [9]).

For `c1ccc2c(CCc3nc4c(c(N5CCOCC5)n3)CNC4)c[nH]c2c1` [Compound 81, 4-(2-(2-(1H-Indol-3-yl)ethyl)-6,7-dihydro-5H-pyrrolo[3,4-d]pyrimidin-4-yl)morpholine hydrochloride], at Mtb CYP121A1 [4], the ΔTm at 1000 µM is 3.5 °C.

Consider `c1ccc2c(CCc3ccnc(N4CCCOCC4)n3)c[nH]c2c1` [Compound 60, 4-(4-(2-(1H-Indol-3-yl)ethyl)pyrimidin-2-yl)-1,4-oxazepane], for which the MIC90 with Mtb H37Rv (setting [6]) was determined as 50 µM; with Mtb H37Rv (setting [7]), 25 µM; with Mtb H37Rv (setting [8]), 25 µM. For the same molecule, the “Activity against Mtb” value in the assay on Mtb H37Rv was “moderate inhibitors”.

On to `Clc1ccc(COC(Cn2ccnc2)c2ccc(Cl)cc2Cl)cc1` (centres unmarked) [econazole], for which, in the assay with Mtb strain H37Rv, the “MIC90 of azole anti-fungal drugs” value is 8 µg/mL.

Take `FC(F)(F)Oc1ccc(-c2nccc(CCc3c[nH]c4ccccc34)n2)cc1` [Compound 34, 3-(2-(2-(4-(Trifluoromethoxy)phenyl)pyrimidin-4-yl)ethyl)-1H-indole]: the MIC90 is 100 µM in the assay with Mtb H37Rv (setting [6]), 100 µM in the assay with Mtb H37Rv (setting [7]), 12.5 µM in the assay with Mtb H37Rv (setting [8]) and 12.5 to 50 µM in the assay with Mtb H37Rv (setting [9]).

The record behind these values is publication PMC8856928, “A new strategy for hit generation: Novel in cellulo active inhibitors of CYP121A1 from Mycobacterium tuberculosis via a combined X-ray crystallographic and phenotypic screening approach (XP screen)” (European Journal of Medicinal Chemistry, 2022).
